Reference: patent publication US11059718B2, “Methods and compositions using peptides and proteins with C-terminal elements” (Sanford Burnham Prebys Medical Discovery Institute, priority 2009, dated 2021)

Key:
[1] = tested on: tumor; conditions: VEGF locally superfused on tumors; cited from earlier work
[2] = tested on: heart (cardiomyocyte apoptosis); assay: TUNEL staining of heart sections after DOX-liposome treatment; type: in vivo, mice; conditions: 1 mg DOX/kg + iRGD daily, 17 days
Protocol: (FIGS. 14A and 14B) Nude mice bearing orthotopic 22Rv1 human prostate tumors were intravenously injected with DOX-liposomes (3 mg DOX/kg) followed 5 min later by 100 nmol iRGD or PBS. Tumors and tissues were collected 3 hours later. In (FIG. 14A), the tumors were sectioned and stained with an anti-CD31 antibody. The doxorubicin is represented by the light specs that look like four halos in the left panel. Scale bars=200 μm, n=3. In (FIG. 14B), DOX in the tissues was quantified. […] The tumors were harvested and weighed after 17 days of treatment. The number of mice in each group was 5. One of 3 experiments that gave similar results is shown. (FIG. 14D) TUNEL staining was performed immunohistochemically on tissue sections of the tumor and heart samples from the treatment study, and quantified for positivity. Statistical analyses were performed with Student's r-test in (FIG. 14B), and ANOVA in (FIG. 14C) and (FIG. 14D); error bars, s.e.m.; n.s., not significant; single asterisk, p<0.05; double asterisk, p<0.01; triple asterisk, p<0.001. […]
Cryo-sections were immunohistochemically stained, scanned with a Scanscope CM-1 scanner, and positively stained areas were quantified with the ImageScope software (Aperio Technologies, Vista, Calif.; Sugahara et al., 2009). […]

[3] = tested on: orthotopic 22Rv-1 human prostate cancer xenografts; conditions: mouse, in vivo
Protocol: The circulation time was 2 hrs. for the free peptides, 15 min. for the peptide-displaying phage, and 3 hrs. for the peptide-coupled micelles. […] Representative fields from multiple sections of each of these three tumors are shown. Scale bars=50 μm. […] The samples were subjected to image analysis with Scanscope CM-1 scanner for quantification of the FAM-positive areas. Statistical analysis was performed with Student's t-test. n=3; error bars, s.e.m.; triple asterisk, p<0.001.

## VEGF
[1]
  enhancement of extravasation of albumin and nanoparticles within the tumor: up to 4 fold

## N=C(N)NCCC[C@@H]1NC(=O)[C@@H](N)CSSC[C@@H](C(=O)O)NC(=O)[C@H](CC(=O)O)NC(=O)[C@@H]2CCCN2C(=O)CNC(=O)[C@H](CCCCN)NC(=O)[C@H](CC(=O)O)NC(=O)CNC1=O [iRGD]
[2]
  cardiomyocyte apoptosis (TUNEL), combo group: minimally present
[3]
  homing to normal tissue: does not detectably home to any normal tissue
